{
  "source": "patent US20030175678A1",
  "about": "“Methods for identifying genes regulating desired cell phenotypes” (priority 2001, published 2003)",
  "key": {"[1]": {"system": "C. fascicularis suspension culture", "test": "Differential induction of EGCG in Crassula fascicularis suspension culture (HPLC)", "assay_type": "cell-based", "details": "B49 medium, treated on day 7 following subculture", "procedure": "Differential induction of catechins in the C. fascicularis suspension culture was performed in 500 mL conical flasks containing 190 mL of either growth medium B105 (modified Gamborg's B5 medium containing 2,4-D (1 mg/L), kinetin (0.1 mg/L), coconut water (100 mL/L), glutamine (10 mM), and 3% sucrose) or a secondary metabolite production medium B49 (Gamborg's B5, 5% sucrose, no hormones), inoculated with 70 mL of 14 day old suspension culture. Cultures were grown for 14 days before harvest and processing. Further cultures grown on production medium B49 were treated using one of each of the following protocols:\n(4) A 40 mL aliquot of a day 0 suspension growing on B105 medium was transferred to a 100 mL flask. On day 3, a sterile solution of 5-azacytidine (5-AC) in water was added for a final concentration of 3×10^−5 M, and the resultant mixture was incubated for 11 days. At this point the 40 mL 5-AC-treated culture was subcultured twice before inoculating 190 mL B49 production medium in a 500 mL flask with 70 mL of day 14 suspension. The culture was then treated further according to protocol (2). […]\nLyophilized biomass from 100 mL plant cell culture was extracted three times with 10 mL of boiling aqueous 0.2 M NaH2PO4 solution (total 30 mL). The combined, cooled, extracts were extracted with EtOAc (2×30 mL). The combined EtOAc extracts were then dried under a stream of nitrogen. The samples were dissolved in 50% aqueous acetonitrile at a concentration of 1.0 mg/mL; a 0.1 mL aliquot was transferred into a 0.25 mL glass insert to a 2 mL HPLC vial. The extraction procedure is scalable according to the initial volume of the plant-cell culture used to generate the biomass.\nHPLC analyses of compounds in plant cell culture extracts were performed in two systems. System 1 (S1) utilized a Rainin Dynamax SD-200 pumping system, a Varian Dynamax PDA-2 diode array detector, with a Waters XTerra RP 18 (5 μm, 3.0×150 mm) column. The mobile phase was composed from 0.1% acetic acid in H2O (solvent A) and 0.1% acetic acid in acetonitrile (solvent B), at a flow rate of 0.75 mL/min: after maintaining initial conditions (A:B, 95:5) for one minute post-injection, gradient elution was accomplished in a linear fashion over 30 min (to A:B, 40:60). A total of 10 μL of each sample was injected onto the column and eluates were analyzed at a wavelength of 275 nm. System 2 (S2) utilized API-electrospray-LC-MS: a Hewlett Packard series HP1100 with a Waters Xterra RP18 (3.5 μm, 2.1×100 mm) column was used as the inlet for a Micromass Platform-LC, in the positive-ion mode. […] Compounds of interest were detected at 254 nm and as single-charged species via selected-ion monitoring in the mass spectrometer. […]"}, "PAL, CHS, and F3-OH": {"system": "PAL, CHS, and F3-OH", "test": "Quantitative RT-PCR of PAL, CHS and F3-OH transcripts in C. dejecta cells", "assay_type": "cell-based, Crassula dejecta", "details": "after 48 hours", "procedure": "Differential induction of mRNA transcripts associated with the synthesis of catechin derivatives in the C. barkleyi suspension culture (as described in Example 2) and the C. dejecta suspension culture (as described in Example 3) were performed in 250 mL conical flasks containing 100 mL of a secondary metabolite production medium B49 (Gamborg's B5, 5% sucrose, no hormones), inoculated with 16 mL of a 14 day old suspension culture (C. barkleyi) or 40 mL of a 21 day old suspension culture (C. dejecta). The cultures were incubated under low light conditions (approximately 30 lux) at 25° C.\nInduction of mRNA usually occurs within 48 hours of receipt of an inducing signal. Accordingly, samples were taken at intervals of 2, 4, 6, 10, 15, 24, and 48 hours following the above treatments. Samples, sufficient to give at least 1 mL packed cell volume, were centrifuged for five minutes at 4000 rpm and the supernatant removed. […]\nThis mixture was incubated at 42° C. for 50 min then denatured at 70° C. for 15 min and stored at −20° C., after a thirty-fold dilution with distilled water. An aliquot of this reaction was then used to quantify the relative abundance of each of the three genes (PAL, CHS, F3-OH) to the invariant one (TBP), using a real time quantification PCR machine (Perkin Elmer 7700) and the previously described oligonucleotides (shown in FIG. 7) in the following conditions: […]"}, "terpene cyclases": {"system": "terpene cyclases", "test": "PCR with degenerate terpene cyclase primers in Ajuga reptans cultures", "assay_type": "cell-based", "details": "24 hour post-treatment cultures"}},
  "data": [
    {"smiles": "CC/C=C\\CC1C(=O)CCC1CC(=O)OC", "note": "(stereo not shown) [methyl jasmonate]", "values": [
      {"measurement": "EGCG (mg/gdwt) two days after treatment", "setting": "[1]", "result": 67, "unit": "mg/gdwt"},
      {"measurement": "induction of PAL, CHS, and F3-OH genes", "setting": "PAL, CHS, and F3-OH", "result": "at least 6 fold"},
      {"measurement": "PCR band of first degenerate primer combination", "setting": "terpene cyclases", "result": "induced"},
      {"measurement": "PCR band of second degenerate primer combination (candidate cyclase for compound 6)", "setting": "terpene cyclases", "result": "not"}
    ]}
  ]
}
